# From patent US4740501A (priority 1985, dated 1988)
# Key:
# MMTV = assay type: cell-based, mouse
# P HR-1 B-lymphoma = assay: Tumor cell survival (trypan blue), continuous exposure; assay type: cell-based, Human
# 5-78 T-lymphoma = assay: as above; assay type: cell-based, Rabbit
# L-1210 leukemia cells [1] = assay: Tumor cell survival after pulse treatment; assay type: cell-based, Mouse; details: for Percent Tumor Cell Survival: viability 24 hr later
# Procedure: All rabbit, marmoset and human lymphoid in vitro cell lines, murine L-1210 leukemia and primary human leukemias were treated at cell concentrations of 6-10×10^5 cells/ml. The tripeptide was added to the cell suspensions to yield final concentrations of 1 to 50 ug/ml. Cultures were treated at 37° C. for periods ranging between 15 min to 24 hr. Following treatment, aliquots were removed and centrifuged at 800 rpm for 9 min, at 5° C. Treatment media were gently aspirated and the lymphoid cells resuspended in fresh growth media and reincubated at 37° C. Culture media were changed daily by gently pelleting the cells and exchanging 60-70% of the spent supernatant with fresh media.
# Survival of tumor cell layers or suspensions was ascertained using 0.5% trypan blue in 0.1M phosphate-buffered saline, pH 7.25. Cell layers were released from the Multidish-4 wells with 0.5 ml STV, diluted 2 to 10 fold with the vital strain; tumor cells in suspension cultures were directly mixed 1:1 with the trypan blue dye. Tumor cells were enumerated using a haemocytometer; all 10 fields were counted for every sample. Percent viable cells was determined by direct comparison of the numbers of cells excluding trypan blue in treated cultures to those in untreated or diluent-treated parallel cultures. There were no significant differences in the viability of cells treated with diluent when compared to untreated cells.
# To delineate the minimum concentration and duration of the tripeptide compound exposure to induce cytolysis, MJY-alpha and B-16 melanoma cell layers and L-1210 leukemia cell suspensions were exposed to 0.5 to 50 ug of the tripeptide compound per ml of solvent for 0.25 to 4 hours. The tripeptide compound was then removed and the cells washed and reincubated in media growth. Tumor cell viability was determined 24 hrs after pulse tripeptide compound exposure. Cell survival of all three tumor cell lines was reduced by an exposure period of as short as 15 min (Table 4). The degree of cytolysis increased with extension of the treatment periods from 15 min to 4 hrs, although the decreases in cell survival were not proportional to the duration of the exposure. […] Comparison of the data in Tables 2 and 4 reveal that cells exposed to the tripeptide compound for one hour were irreversibly damaged when assayed a day later despite their apparent viability immediately after treatment.
# The reversibility of the cancericidal activity of the tripeptide compounds on L-1210 leukemia, MJY-alpha mammary tumor and B-16 melanoma cells was also monitored in the nonhostile tissue culture environment. Cell suspensions of these tumor models were treated with tripeptide for 15 to 240 min, washed and either inoculated into mice or maintained as suspension (L-1210) or monolayer cultures (MJY-alpha and B-16). Reductions in tumor cells survival were negligible (0-6%) in all three tumor systems at initiation of in vitro cultures following treatment with 50 ug tripeptide/ml for as long as 4 hrs. However, significant decreases in cellular viabilities of L-1210 leukemia (FIG. 9), MJY-alpha mammary tumor (FIG. 10) and B-16 melanoma (FIG. 11) tumor cells were observed 24 hr following tripeptide exposure and for the next 6 days.
# L-1210 leukemia cells [2] = assay: Bioassay of tumorigenicity of in vitro treated tumor cells in syngeneic hosts; assay type: in vivo, BDf1 mice; details: for MEAN SURVIVAL TIME (MST) of recipients: L-1210, control 10
# Excerpt: Suspensions of untreated and tripeptide treated MJY-alpha mammary tumor, B-16 melanoma, and L-1210 leukemia cells were adjusted to a concentration of 1×10^7 cells/ml based on the initial tumor cell concentration before the tripeptide exposure. Tumor cells were inoculated into syngeneic hosts at a concentration of 1×10^6 cells in […]. Female BALB/c/Crgl recipients of MJY-alpha mammary tumor cells and male C57BL/6/Jx hosts receiving B16 melanoma cells were inoculated subcutaneously; BDf1 mice were given intraperitoneal injections of L-1210 cells. Subcutaneous tumors were measured along their long and short axes every 1 to 3 days; tumor size is reported as the product of the two measurements (mm^2). The examination periods for mice receiving L-1210, MJY-alpha and B-16 tumor grafts were 45, 80, and 85 days, respectively. All mice were autopsied at the time of death or sacrifice.
# [3] = tested on: MJY-alpha mammary tumor cells; assay: PTT.119 induced resistance test, long-term low dose culture; assay type: cell-based
smiles,measurement,setting,value
"CCOC(=O)[C@H](CCSC)NC(=O)[C@H](Cc1cccc(N(CCCl)CCCl)c1)NC(=O)[C@@H](N)Cc1ccc(F)cc1.Cl [PTT.119, 3-(p-fluorophenyl)-L-alanyl-3-[m-bis(2-chloroethyl)aminophenyl]-L-alanyl-L-methionine ethyl ester hydrochloride]",less MMTV produced compared to controls (labeled uridine),MMTV,37%
same,reduction of MMTV replication,MMTV,27%
same,reduction of viral replication (labeled uridine),MMTV,42%
same,% tumor cell survival,"P HR-1 B-lymphoma; 10 ug/ml, 1 hr",96%
same,% tumor cell survival,"P HR-1 B-lymphoma; 10 ug/ml, 4 hr",91%
same,% tumor cell survival,"P HR-1 B-lymphoma; 10 ug/ml, 24 hr",75%
same,% tumor cell survival,"P HR-1 B-lymphoma; 25 ug/ml, 1 hr",92%
same,% tumor cell survival,"P HR-1 B-lymphoma; 25 ug/ml, 4 hr",86%
same,% tumor cell survival,"P HR-1 B-lymphoma; 25 ug/ml, 24 hr",69%
same,% tumor cell survival,"P HR-1 B-lymphoma; 50 ug/ml, 1 hr",93%
same,% tumor cell survival,"P HR-1 B-lymphoma; 50 ug/ml, 4 hr",75%
same,% tumor cell survival,"P HR-1 B-lymphoma; 50 ug/ml, 24 hr",60%
same,% tumor cell survival,"5-78 T-lymphoma; 5 ug/ml, 1 hr",100%
same,% tumor cell survival,"5-78 T-lymphoma; 5 ug/ml, 4 hr",88%
same,% tumor cell survival,"5-78 T-lymphoma; 5 ug/ml, 24 hr",66%
same,% tumor cell survival,"5-78 T-lymphoma; 10 ug/ml, 1 hr",89%
same,% tumor cell survival,"5-78 T-lymphoma; 10 ug/ml, 4 hr",61%
same,% tumor cell survival,"5-78 T-lymphoma; 10 ug/ml, 24 hr",49%
same,% tumor cell survival,"5-78 T-lymphoma; 25 ug/ml, 1 hr",75%
same,% tumor cell survival,"5-78 T-lymphoma; 25 ug/ml, 4 hr",32%
same,% tumor cell survival,"5-78 T-lymphoma; 25 ug/ml, 8 hr",14%
same,% tumor cell survival,"5-78 T-lymphoma; 25 ug/ml, 24 hr",6%
same,% tumor cell survival,"5-78 T-lymphoma; 50 ug/ml, 1 hr",57%
same,% tumor cell survival,"5-78 T-lymphoma; 50 ug/ml, 4 hr",4%
same,% tumor cell survival,"5-78 T-lymphoma; 50 ug/ml, 24 hr",2%
same,Percent Tumor Cell Survival,"L-1210 leukemia cells [1]; L-1210, 1 ug/ml, pulse 1 hr",83%
same,Percent Tumor Cell Survival,"L-1210 leukemia cells [1]; L-1210, 1 ug/ml, pulse 2 hr",78%
same,Percent Tumor Cell Survival,"L-1210 leukemia cells [1]; L-1210, 1 ug/ml, pulse 4 hr",45%
same,Percent Tumor Cell Survival,"L-1210 leukemia cells [1]; L-1210, 1 ug/ml, pulse .25 hr",80%
same,Percent Tumor Cell Survival,"L-1210 leukemia cells [1]; L-1210, 1 ug/ml, pulse .5 hr",87%
same,Percent Tumor Cell Survival,"L-1210 leukemia cells [1]; L-1210, 5 ug/ml, pulse 1 hr",61%
same,Percent Tumor Cell Survival,"L-1210 leukemia cells [1]; L-1210, 5 ug/ml, pulse 2 hr",57%
same,Percent Tumor Cell Survival,"L-1210 leukemia cells [1]; L-1210, 5 ug/ml, pulse 4 hr",35%
same,Percent Tumor Cell Survival,"L-1210 leukemia cells [1]; L-1210, 5 ug/ml, pulse .25 hr",72%
same,Percent Tumor Cell Survival,"L-1210 leukemia cells [1]; L-1210, 5 ug/ml, pulse .5 hr",60%
same,Percent Tumor Cell Survival,"L-1210 leukemia cells [1]; L-1210, 10 ug/ml, pulse 1 hr",27%
same,Percent Tumor Cell Survival,"L-1210 leukemia cells [1]; L-1210, 10 ug/ml, pulse 2 hr",31%
same,Percent Tumor Cell Survival,"L-1210 leukemia cells [1]; L-1210, 10 ug/ml, pulse 4 hr",37%
same,Percent Tumor Cell Survival,"L-1210 leukemia cells [1]; L-1210, 10 ug/ml, pulse .25 hr",53%
same,Percent Tumor Cell Survival,"L-1210 leukemia cells [1]; L-1210, 10 ug/ml, pulse .5 hr",40%
same,Percent Tumor Cell Survival,"L-1210 leukemia cells [1]; L-1210, 20 ug/ml, pulse 1 hr",0%
same,Percent Tumor Cell Survival,"L-1210 leukemia cells [1]; L-1210, 20 ug/ml, pulse .25 hr",0%
same,Percent Tumor Cell Survival,"L-1210 leukemia cells [1]; L-1210, 20 ug/ml, pulse .5 hr",0%
same,Percent Tumor Cell Survival,"L-1210 leukemia cells [1]; L-1210, 25 ug/ml, pulse 1 hr",0%
same,Percent Tumor Cell Survival,"L-1210 leukemia cells [1]; L-1210, 25 ug/ml, pulse 2 hr",0%
same,Percent Tumor Cell Survival,"L-1210 leukemia cells [1]; L-1210, 25 ug/ml, pulse 4 hr",0%
same,Percent Tumor Cell Survival,"L-1210 leukemia cells [1]; L-1210, 25 ug/ml, pulse .25 hr",20%
same,Percent Tumor Cell Survival,"L-1210 leukemia cells [1]; L-1210, 25 ug/ml, pulse .5 hr",7%
same,reductions in tumor cell survival at initiation of in vitro cultures,"L-1210 leukemia cells [1]; L-1210, 50 ug/ml for as long as 4 hrs (all three tumor systems)",0-6%
same,Percent Tumor Cell Survival,"L-1210 leukemia cells [1]; L-1210, .5 ug/ml, pulse 1 hr",83%
same,Percent Tumor Cell Survival,"L-1210 leukemia cells [1]; L-1210, .5 ug/ml, pulse 2 hr",94%
same,Percent Tumor Cell Survival,"L-1210 leukemia cells [1]; L-1210, .5 ug/ml, pulse 4 hr",68%
same,Percent Tumor Cell Survival,"L-1210 leukemia cells [1]; L-1210, .5 ug/ml, pulse .25 hr",95%
same,Percent Tumor Cell Survival,"L-1210 leukemia cells [1]; L-1210, .5 ug/ml, pulse .5 hr",90%
same,L-1210 cells destroyed compared to mammary tumor and melanoma cells,"L-1210 leukemia cells [1]; any given concentration, 30 min or 1 hr pulse, 5 days",approximately 5 times
same,MEAN SURVIVAL TIME (MST) of recipients,"L-1210 leukemia cells [2]; 1 ug/ml, 15 min",10 days
same,MEAN SURVIVAL TIME (MST) of recipients,"L-1210 leukemia cells [2]; 1 ug/ml, 30 min",10 days
same,MEAN SURVIVAL TIME (MST) of recipients,"L-1210 leukemia cells [2]; 1 ug/ml, 60 min",11 days
same,MEAN SURVIVAL TIME (MST) of recipients,"L-1210 leukemia cells [2]; 1 ug/ml, 120 min",13 days
same,MEAN SURVIVAL TIME (MST) of recipients,"L-1210 leukemia cells [2]; 5 ug/ml, 15 min",13 days
same,MEAN SURVIVAL TIME (MST) of recipients,"L-1210 leukemia cells [2]; 5 ug/ml, 30 min",21 days
same,MEAN SURVIVAL TIME (MST) of recipients,"L-1210 leukemia cells [2]; 5 ug/ml, 60 min",32 days
same,MEAN SURVIVAL TIME (MST) of recipients,"L-1210 leukemia cells [2]; 10 ug/ml, 15 min",8 days
same,ILS (increased life span),L-1210 leukemia cells [2]; L-1210 cells treated with 5 ug for 30 min,110%
same,ILS (increased life span),L-1210 leukemia cells [2]; L-1210 cells treated with 5 ug for 60 min,220%
same,tumor growth in recipient mice,L-1210 leukemia cells [2]; L-1210 cells treated with 5 ug for 2 hr,No tumor growth
same,tumor growth in recipient mice,L-1210 leukemia cells [2]; L-1210 cells treated with 10 ug for 30 min or longer,No tumor growth
same,survival of monolayers in continuous treatment,[3]; 15 uM,did not survive beyond the second passage
same,dose response curves of treated lines vs previously untreated MJY-alpha cells,"[3]; alpha-0.15, alpha-1.5, alpha-7.5, 8 months, 24 h challenge with 1.5-75 uM",No alteration
